Test system: CYP1A2
Assay: MEROD assay in live Hepa1c1c7 cells preincubated with test compound (CYP1A2 induction)
Assay type: cell-based, mouse
Description: FIG. 1 illustrates how caffeine is primarily metabolized to paraxanthine via CYP1A2 enzyme in a human, according to some embodiments. The MEROD (methoxyresorufin-O-demethylase) assay measures the activity of the enzyme (CYP1A2) that converts methoxyresorufin (probe substrate) to resorufin (demethylation) in the presence of NADPH. The resulting resorufin concentration can be measured using a fluorescence reader by setting the excitation and emission wavelengths at 544 and 590 nm, respectively.
For MEROD assay in live cells, Hepa1c1c7 cells were cultured in either 6-well or 24-well-plates. For the 24-well plate experiment, after confluent cells were incubated for approximately 20 hours with either resorufin, nitro-resorufin, chloro-resorufin, 3-MC or DMSO (in triplicates), culture media was removed and 180 μL fresh culture media containing […] methoxyresorufin was added per well. After 1 hour incubation at 37° C., 100 μL aliquot was taken from each well and the formation of resorufin was measured by fluorescence. […] After 5 hours incubation at 37° C., 100 μL aliquot was taken from each well, centrifuged at 12,000 g at RT for ˜5 min and the supernatants were placed into wells of a 96-well fluorescence plate and the formation of resorufin was measured by fluorescence.

O=c1c2ccc(Cl)cc2nc2n1CCc1c-2[nH]c2ccccc12 [chloro-rutaecarpine]
formation of resorufin in live cells (MEROD assay) (Hepa1c1c7 cells incubated with 2 μM compound, compared to DMSO, 24-well and 6-well plate studies): significant difference | formation of resorufin in live cells (MEROD assay) (Hepa1c1c7 cells incubated with 10 μM compound): no marked difference

Reference: US20120322812A1, “RUTAECARPINE DERIVATIVES FOR TREATING INSOMNIA” (priority 2011, published 2012)
